In patent publication US20220117938A1, “COMBINATON THERAPY WITH A DON PRODRUG AND AN IMMUNE CHECKPOINT INHIBITOR” (DRACEN PHARMACEUTICALS, INC., priority 2019, published 2022):

System: Cells
Experiment: Cell viability, CTG luminescence, 72 h (Example 7, Experiment 1)
Format: cell-based
Procedure: Cells were cultured in the appropriate medium at 37° C. and 5% CO2 atmosphere. Cells were harvested by trypsinization, spun at 800 rpm for 5 min and resuspended in medium. The cell concentration was adjusted with medium and seeded at a cell density of 3000 cells in 90 μL per well in 96-well plates, and incubated overnight at 37° C. and 5% CO2. After 24 hours, the 1 mM test compound (either Compound 1 or DON) was successively diluted into 7 concentrations according to a three-fold gradient respectively, and 10 μl/well drug was added. The final concentrations were 100 μM, 33.33 μM, 11.11 μM, 3.7 μM, 1.24 μM, 0.41 μM, 0.14 μM, and 0.046 μM. The 100 μM Positive Control drug was successively diluted in 7 concentrations according to a three-fold gradient, and 10 μl/well drug was added. The final concentrations were 10 μM, 3.333 μM, 1.111 μM, 0.37 μM, 0.124 μM, 0.041 μM, 0.014 μM and 0.0046 μM. Cells were incubated for 72 h at 37° C. and 5% CO2. 100 μL CTG reagent was then added to each well. Plates were shaken for 2 min and placed 10 min at room temperature. Luminescence was recorded on Perkin Elmer Envision 2104 Multilabel Reader. IC50's were obtained by fitting curve using GraphPad Prism5 software. In all cases the treatment time was 72 h.

[1] = Homo sapiens, BT-474, 72 h, BT-474
[2] = Homo sapiens, BT-549, 72 h, BT-549
[3] = Homo sapiens, CAPAN-1, 72 h, Capan-1
[4] = Homo sapiens, HCC1395, 72 h, HCC1395
[5] = Homo sapiens, HCC1806, 72 h, HCC1806
[6] = Homo sapiens, HCC1937, 72 h, HCC1937
[7] = Homo sapiens, HCC1954, 72 h, HCC1954
[8] = Homo sapiens, HGC-27, 72 h, HGC-27
[9] = Homo sapiens, HL-60, 72 h, HL60
[10] = Homo sapiens, Huh-7, 72 h, HuH-7
[11] = Homo sapiens, KARPAS-299, 72 h, KARPAS-299
[12] = Homo sapiens, KATO III, KATO-III
[13] = Homo sapiens, LN-18, 72 h, LN-18
[14] = Homo sapiens, MDA-MB-231, 72 h, MDA-MB-231
[15] = Homo sapiens, MDA-MB-361, 72 h, MDA-MB-361
[16] = Homo sapiens, MKN-45, 72 h, MKN-45
[17] = Homo sapiens, MOLT-4, 72 h, MOLT-4
[18] = Homo sapiens, NCI-H23, 72 h, NCI-H23
[19] = Homo sapiens, NCI-H226, 72 h, NCI-H226
[20] = Homo sapiens, NCI-H358, 72 h, NCI-H358
[21] = Homo sapiens, NCI-H661, 72 h, NCI-H661
[22] = Homo sapiens, NCI-H929, 72 h, NCI-H929
[23] = Homo sapiens, NCI-H1299, 72 h, NCI-H1299
[24] = Homo sapiens, NCI-H1650, 72 h, NCI-H1650
[25] = Homo sapiens, OVCAR-3, 72 h, OVCAR-3
[26] = Homo sapiens, RPMI-7951, 72 h, RPMI-7951
[27] = Homo sapiens, SK-MES-1, 72 h, SK-MES-1
[28] = Homo sapiens, SNB-19, 72 h, SNB-19
[29] = Homo sapiens, SNU-449, 72 h, SNU-449
[30] = Homo sapiens, SW480, 72 h, SW480
[31] = Homo sapiens, U-937, 72 h, U-937
[32] = Homo sapiens, ZR-75-1, 72 h, ZR-75-1
[33] = Homo sapiens, ZR-75-30, 72 h, ZR-75-30

Work on `CC(=O)N[C@@H](Cc1c[nH]c2ccccc12)C(=O)N[C@@H](CCC(=O)C=[N+]=[N-])C(=O)OC(C)C` [Compound 1, Isopropyl (S)-2-((S)-2-acetamido-3-(1H-indol-3-yl)propanamido)-6-diazo-5-oxohexanoate] yielded an IC50 (AGS) of 19.9 µM, an IC50 (C3A) of 8.39 µM and an IC50 (Homo sapiens, 143B) of 2.44 µM. It also gave an IC50 (Homo sapiens, 769-P) of 2.08 µM, an IC50 [1] of 9.8 µM and an IC50 [2] of 30.8 µM. It also gave an IC50 [3] of 29.3 µM, an IC50 (Homo sapiens, Daudi) of 1.07 µM and an IC50 [4] of 59.8 µM. For the same compound, the IC50 [5] was 3.86 µM, the IC50 [6] was 156 µM and the IC50 [7] was 3.33 µM. The IC50 [8] was 13.3 µM, the IC50 [9] was 2.03 µM and the IC50 [10] was 1.27 µM. It also gave an IC50 (Homo sapiens, Jurkat) of 0.656 µM, an IC50 [11] of 0.636 µM and an IC50 [12] of 10.7 µM. The IC50 [13] was 4.15 µM, the IC50 [14] was 2.88 µM and the IC50 [15] was 117 µM. For the same compound, the IC50 (Homo sapiens, MDA-MB-435S) was 45.4 µM, the IC50 [16] was 1.65 µM and the IC50 [17] was 3.03 µM. For the same compound, the IC50 (Homo sapiens, Malme-3M) was 19.9 µM, the IC50 [18] was 3.53 µM and the IC50 [19] was 14.5 µM. It also gave an IC50 (Homo sapiens, NCI-H322M) of 49.1 µM, an IC50 [20] of 9.61 µM and an IC50 [21] of 131 µM. The IC50 [22] was 13.8 µM, the IC50 [23] was 9.2 µM and the IC50 [24] was 6.61 µM. It also gave an IC50 [25] of 34.1 µM, an IC50 [26] of 0.894 µM and an IC50 (Homo sapiens, Raji) of 3.13 µM. It also gave an IC50 (Homo sapiens, SH-SY5Y) of 9.1 µM, an IC50 [27] of 71.5 µM and an IC50 [28] of 3.21 µM. It also gave an IC50 [29] of 38.6 µM, an IC50 [30] of 88.1 µM and an IC50 (Homo sapiens, T98G) of 3.39 µM. For the same compound, the IC50 [31] was 0.811 µM, the IC50 [32] was 137 µM and the IC50 [33] was 282 µM. For the same compound, the IC50 (NAMALWA) was 1.05 µM, the IC50 (RKO) was 3.64 µM and the IC50 (T84) was 125 µM. The IC50 (TT) was 77.1 µM and the IC50 (U266B1) was 0.451 µM.

For `[N-]=[N+]=CC(=O)CC[C@H](N)C(=O)O` [DON, 6-Diazo-5-oxo-L-norleucine, reference compound], the IC50 (AGS) was 13.8 µM, the IC50 (C3A) was 2.4 µM and the IC50 (Homo sapiens, 143B) was 1.06 µM. For the same compound, the IC50 (Homo sapiens, 769-P) was 1.85 µM, the IC50 [1] was 15.1 µM and the IC50 [2] was 5.82 µM. The IC50 [3] was 67.5 µM, the IC50 (Homo sapiens, Daudi) was 0.388 µM and the IC50 [4] was 32.3 µM. For the same compound, the IC50 [5] was 0.72 µM, the IC50 [6] was 156 µM and the IC50 [7] was 0.951 µM. The IC50 [8] was 10 µM, the IC50 [9] was 3.61 µM and the IC50 [10] was 5.94 µM. For the same compound, the IC50 (Homo sapiens, Jurkat) was 0.368 µM, the IC50 [11] was 0.309 µM and the IC50 [12] was 2.96 µM. It also gave an IC50 [13] of 2.71 µM, an IC50 [14] of 1.78 µM and an IC50 [15] of 235 µM. The IC50 (Homo sapiens, MDA-MB-435S) was 64.4 µM, the IC50 [16] was 7.52 µM and the IC50 [17] was 2.38 µM. For the same compound, the IC50 (Homo sapiens, Malme-3M) was 36.6 µM, the IC50 [18] was 1.66 µM and the IC50 [19] was 1.87 µM. For the same compound, the IC50 (Homo sapiens, NCI-H322M) was 4.78 µM, the IC50 [20] was 0.974 µM and the IC50 [21] was 70.6 µM. For the same compound, the IC50 [22] was 11.8 µM, the IC50 [23] was 1.82 µM and the IC50 [24] was 1.89 µM. It also gave an IC50 [25] of 31 µM, an IC50 [26] of 3.47 µM and an IC50 (Homo sapiens, Raji) of 2.04 µM. It also gave an IC50 (Homo sapiens, SH-SY5Y) of 4.71 µM, an IC50 [27] of 145 µM and an IC50 [28] of 2.03 µM. It also gave an IC50 [29] of 2.18 µM, an IC50 [30] of 100 µM and an IC50 (Homo sapiens, T98G) of 1.38 µM. It also gave an IC50 [31] of 0.566 µM, an IC50 [32] of 101 µM and an IC50 [33] of 982 µM. It also gave an IC50 (NAMALWA) of 0.333 µM, an IC50 (RKO) of 3.22 µM and an IC50 (T84) of 100 µM. The IC50 (TT) was 42.9 µM and the IC50 (U266B1) was 0.413 µM.
